Series [1] is described as follows: Circular dichroism analysis, percent α-helicity. The format is physicochemical. The settings on record: 10 mM phosphate buffer pH 7, SDS; for % α helicity: 10-30 μM peptide, 2 h folding. As to the method:
Following synthesis of the calcitonin analogues, the helicity of the calcitonin analogues was assessed by circular dichroism analysis. Far ultraviolet spectra (FIG. 6) were obtained from 195-260 nm on J-180 spectropolarimeter (Jasco) using 10-30 μM of sCT and all analogues in 10 mM phosphate buffer pH 7 and in the presence of sodium dodecyl sulphate (SDS), which were left for 2 h to allow folding. Each spectrum represents the average of 3 scans, and the mean residue ellipticity (θMRE) was calculated according to the following equation: […]
Percentage helicity of peptides as presented in Table 2 was calculated according to the following equation (Sommese, et al. 2010): […]
where n is the number of amino acids in the peptide.
A general note: Circular dichroism is widely used to follow secondary structure.

Series [2] is described as follows: Degradation in simulated gastric fluid (SGF). Format: in vitro ADME. The settings on record: for half-life: simulated gastric fluid, pH 1.3, pepsin 0.2 mg/mL stock, read-out: SGF t1/2. As to the method:
sCT and its analogues were evaluated for their degradation in simulated gastric fluid (SGF). The stock solution of each analogue was prepared by dissolving 2 mg of the peptide in 1 mL water. The stock solution of pepsin enzyme was prepared by dissolving 5 mg of pepsin in 5 mL of 10 mM HCl (1 mg/mL), and then was diluted to a 0.2 mg/mL with 10 mM HCl. 7 For degradation, 34 μL of pepsin (0.2 mg/mL) was added to 100 μL of peptide (2 mg/mL) at pH 1.3 and the reaction incubated at 37° C. To monitor the degradation, 10 μL of the reaction aliquots were taken and quenched with 10 μL of 10 mM NaOH every 30 min for several hours and analyzed by HPLC using XSelect C18 column ([…], 130 A, 4.6×150 mm) with a gradient of 5-70% of 0.1% TFA in MeCN over 20 min with monitoring at 220 nm.

Series [3] addresses T1, calcitonin receptor (CTR) (Homo sapiens, UniProt P30988).
T1 sequence (P30988 25-474): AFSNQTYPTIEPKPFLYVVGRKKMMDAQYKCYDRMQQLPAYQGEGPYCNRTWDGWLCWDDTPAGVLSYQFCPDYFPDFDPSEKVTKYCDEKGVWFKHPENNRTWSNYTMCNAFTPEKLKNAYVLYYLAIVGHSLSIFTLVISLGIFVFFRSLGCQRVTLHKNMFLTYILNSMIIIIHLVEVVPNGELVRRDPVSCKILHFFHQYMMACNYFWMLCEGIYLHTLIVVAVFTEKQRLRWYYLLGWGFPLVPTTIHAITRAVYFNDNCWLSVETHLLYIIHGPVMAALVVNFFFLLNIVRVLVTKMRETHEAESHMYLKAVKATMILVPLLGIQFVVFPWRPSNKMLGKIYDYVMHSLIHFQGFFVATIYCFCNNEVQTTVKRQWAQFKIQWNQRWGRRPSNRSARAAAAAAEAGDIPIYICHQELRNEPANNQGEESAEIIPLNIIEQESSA
The series is described as follows: Ca^2+ concentration assay, HEK293 CALCR-HiTSeeker cell line. The arrangement: expressed in transfected cells. Format: cell-based. The following applies: HEK293 CALCR-HiTSeeker cells.

In series [4] the target is T1, calcitonin receptor (CTR). The series is described as follows: cAMP accumulation assay, U2OS Red cAMPNomad-CALCR cell line. The following applies: U2OS Red cAMPNomad-CALCR cells; for EC50: overnight incubation. More on the design: expressed in transfected cells; host or cells: U2OS Red cAMPNomad-CALCR. The format is cell-based.
Series [5] in a line: Degradation in simulated intestinal fluid (SIF).

Several values for one entry are separate records, joined by “and”; a condition that tells them apart may be missing. Identical values can stand only once. Bridge positions count the residues as written; N and C are the ends. Square brackets hold non-standard residues; d marks the D form. Peptide text beside a SMILES is read from it. Sec = N[C@@H](C[SeH])C(=O)O Some results are limits rather than exact numbers.

As usually defined, the EC50 is the concentration giving half of the maximal effect.

In the case of `CC(C)C[C@H](NC(=O)[C@H](CCCCN)NC(=O)CNC(=O)[C@H](CC(C)C)NC(=O)[C@@H](NC(=O)[C@@H]1CSCSC[C@H](N)C(=O)N[C@@H](CO)C(=O)N[C@@H](CC(N)=O)C(=O)N[C@@H](CC(C)C)C(=O)N[C@@H](CO)C(=O)N[C@@H]([C@@H](C)O)C(=O)N1)C(C)C)C(=O)N[C@@H](CO)C(=O)N[C@@H](CCC(N)=O)C(=O)N[C@@H](CCC(=O)O)C(=O)N[C@@H](CC(C)C)C(=O)N[C@@H](Cc1c[nH]cn1)C(=O)N[C@@H](CCCCN)C(=O)N[C@@H](CC(C)C)C(=O)N[C@@H](CCC(N)=O)C(=O)N[C@H](C(=O)N[C@@H](Cc1ccc(O)cc1)C(=O)N1CCC[C@H]1C(=O)N[C@@H](CCCNC(=N)N)C(=O)N[C@H](C(=O)N[C@@H](CC(N)=O)C(=O)N[C@H](C(=O)NCC(=O)N[C@@H](CO)C(=O)NCC(=O)N[C@H](C(=O)N1CCC[C@H]1C(N)=O)[C@@H](C)O)[C@@H](C)O)[C@@H](C)O)[C@@H](C)O` [MT-CT], the “helicity retained following cyclization” value in series [1] is recorded as “retain the high degree of helicity”. For the same compound, the “% α helicity” value in series [1] stood at 98.5%. In addition, the half-life in series [2] (pH 1.3, 37 °C) is 33.5 ± 0.2 min. For the same compound, the 50% effective concentration (EC50) is 7300 ± 700 nM in series [3] (read-out: Ca^2+ EC50), over 1000 nM in series [3] (read-out: Ca^2+ EC50 (bound)), 1670 ± 60 nM in series [4] (read-out: cAMP EC50) and over 1000 nM in series [4] (read-out: cAMP EC50 (bound)).
Consider `CC(C)C[C@H](NC(=O)[C@H](CCCCN)NC(=O)CNC(=O)[C@H](CC(C)C)NC(=O)[C@@H](NC(=O)[C@@H]1CSSC[C@H](N)C(=O)N[C@@H](CO)C(=O)N[C@@H](CC(N)=O)C(=O)N[C@@H](CC(C)C)C(=O)N[C@@H](CO)C(=O)N[C@@H]([C@@H](C)O)C(=O)N1)C(C)C)C(=O)N[C@@H](CO)C(=O)N[C@@H](CCC(N)=O)C(=O)N[C@H]1CCC(=O)NCCCC[C@@H](C(=O)N[C@@H](CC(C)C)C(=O)N[C@@H](CCC(N)=O)C(=O)N[C@H](C(=O)N[C@@H](Cc2ccc(O)cc2)C(=O)N2CCC[C@H]2C(=O)N[C@@H](CCCNC(=N)N)C(=O)N[C@H](C(=O)N[C@@H](CC(N)=O)C(=O)N[C@H](C(=O)NCC(=O)N[C@@H](CO)C(=O)NCC(=O)N[C@H](C(=O)N2CCC[C@H]2C(N)=O)[C@@H](C)O)[C@@H](C)O)[C@@H](C)O)[C@@H](C)O)NC(=O)[C@H](Cc2c[nH]cn2)NC(=O)[C@H](CC(C)C)NC1=O` [CT(E15-K18)], for which the “% α helicity” value in series [1] is on record as 62.9%. In series [2] (pH 1.3, 37 °C), the half-life is 47.3 ± 1.9 min.
On to `CC(C)C[C@@H]1NC(=O)[C@@H](NC(=O)CNC(=O)[C@H](CC(C)C)NC(=O)[C@@H](NC(=O)[C@@H]2CSSC[C@H](N)C(=O)N[C@@H](CO)C(=O)N[C@@H](CC(N)=O)C(=O)N[C@@H](CC(C)C)C(=O)N[C@@H](CO)C(=O)N[C@@H]([C@@H](C)O)C(=O)N2)C(C)C)CCCCNCc2cc(ccc2O)C[C@@H](C(=O)N2CCC[C@H]2C(=O)N[C@@H](CCC(N)=O)C(=O)N[C@H](C(=O)N[C@@H](CC(N)=O)C(=O)N[C@H](C(=O)NCC(=O)N[C@@H](CO)C(=O)NCC(=O)N[C@H](C(=O)N2CCC[C@H]2C(N)=O)[C@@H](C)O)[C@@H](C)O)[C@@H](C)O)NC(=O)[C@H]([C@@H](C)O)NC(=O)[C@H](CCC(N)=O)NC(=O)[C@H](CC(C)C)NC(=O)[C@H](CCCCN)NC(=O)[C@H](Cc2c[nH]cn2)NC(=O)[C@H](CC(C)C)NC(=O)[C@H](CCC(=O)O)NC(=O)[C@H](CCC(N)=O)NC(=O)[C@H](CO)NC1=O` [KaY-1(R24Q)], for which the “SGF t1/2” value in series [2] (pepsin 0.2 mg/mL stock, pH 1.3, 37 °C) is reported as 170.6 ± 32.2 min. The “half-life in SGF relative to sCT” value in series [2] (pepsin, pH 1.3, 37 °C, vs sCT) is on record as “five-fold longer half-life”. Besides, the half-life in series [2] (pH 1.3, 37 °C) is 170 min; in series [5] (simulated intestinal fluid, pH 6.8, SIF t1/2, pancreatin 2 mg/mL stock, pH 6.8, 37 °C), 42 min. In addition, in series [2] (vs sCT, first figure of sentence), the “improvement in stability in simulated gastric fluid over sCT” value is on record as 5 fold. For the same compound, the EC50 was 216 ± 43.8 nM in series [3] (read-out: Ca^2+ EC50); 2.67 nM and 2.7 nM in series [4] (read-out: cAMP EC50). Further, in series [5] (pancreatin 2 mg/mL stock, pH 6.8, 37 °C), the “SIF t1/2” value is on record as 41.9 ± 6.1 min. The “stability in SIF compared to sCT” value in series [5] (pancreatin, pH 6.8, 37 °C, vs sCT) is “six-fold enhancement in stability compared to sCT”. Also, the “improvement in stability in simulated gastric fluid” value in series [5] (vs sCT, second figure of sentence) is on record as 6 fold.
As to `CC(C)C[C@H](NC(=O)[C@H](CCCCN)NC(=O)CNC(=O)[C@H](CC(C)C)NC(=O)[C@@H](NC(=O)[C@@H]1CSSC[C@H](N)C(=O)N[C@@H](CO)C(=O)N[C@@H](CC(N)=O)C(=O)N[C@@H](CC(C)C)C(=O)N[C@@H](CO)C(=O)N[C@@H]([C@@H](C)O)C(=O)N1)C(C)C)C(=O)N[C@@H](CO)C(=O)N[C@@H](CCC(N)=O)C(=O)N[C@@H](CCC(=O)O)C(=O)N[C@@H](CC(C)C)C(=O)N[C@@H](Cc1c[nH]cn1)C(=O)N[C@H]1CCCCNCc2cc(ccc2O)C[C@@H](C(=O)N2CCC[C@H]2C(=O)N[C@@H](CCCNC(=N)N)C(=O)N[C@H](C(=O)N[C@@H](CC(N)=O)C(=O)N[C@H](C(=O)NCC(=O)N[C@@H](CO)C(=O)NCC(=O)N[C@H](C(=O)N2CCC[C@H]2C(N)=O)[C@@H](C)O)[C@@H](C)O)[C@@H](C)O)NC(=O)[C@H]([C@@H](C)O)NC(=O)[C@H](CCC(N)=O)NC(=O)[C@H](CC(C)C)NC1=O` [KaY-2], the “% α helicity” value in series [1] was determined as 56.2%. Also, the half-life in series [2] (pH 1.3, 37 °C) was 34.5 ± 0.3 min.
On to `CC(C)C[C@H](NC(=O)[C@H](CCCCN)NC(=O)CNC(=O)[C@H](CC(C)C)NC(=O)[C@@H](NC(=O)[C@@H]1C[Se][Se]C[C@H](N)C(=O)N[C@@H](CO)C(=O)N[C@@H](CC(N)=O)C(=O)N[C@@H](CC(C)C)C(=O)N[C@@H](CO)C(=O)N[C@@H]([C@@H](C)O)C(=O)N1)C(C)C)C(=O)N[C@@H](CO)C(=O)N[C@@H](CCC(N)=O)C(=O)N[C@@H](CCC(=O)O)C(=O)N[C@@H](CC(C)C)C(=O)N[C@@H](Cc1c[nH]cn1)C(=O)N[C@@H](CCCCN)C(=O)N[C@@H](CC(C)C)C(=O)N[C@@H](CCC(N)=O)C(=O)N[C@H](C(=O)N[C@@H](Cc1ccc(O)cc1)C(=O)N1CCC[C@H]1C(=O)N[C@@H](CCCNC(=N)N)C(=O)N[C@H](C(=O)N[C@@H](CC(N)=O)C(=O)N[C@H](C(=O)NCC(=O)N[C@@H](CO)C(=O)NCC(=O)N[C@H](C(=O)N1CCC[C@H]1C(N)=O)[C@@H](C)O)[C@@H](C)O)[C@@H](C)O)[C@@H](C)O` [Se-CT] (H-[Sec]SNLST[Sec]VLGKLSQELHKLQTYPRTNTGSGTP-NH2; diselenide 1-7), for which, in series [1], the “helicity retained following cyclization” value is on record as “retain the high degree of helicity” and the “% α helicity” value came out at 99.2%. Besides, in series [2] (pH 1.3, 37 °C), the half-life is 32.6 ± 0.5 min. Moreover, in series [3] (read-out: Ca^2+ EC50), the EC50 is 113 ± 18.3 nM. The “cAMP EC50 / potency” value in series [4] was “EC50 in the nanomolar range”. Besides, the EC50 in series [4] (read-out: cAMP EC50) is 82.7 ± 16.5 nM.

Source of the values: patent US20260308222A1, “STABILIZED ANALOGUES OF CALCITONIN” (YISSUM RESEARCH DEVELOPMENT COMPANY OF THE HEBREW …, priority 2024, published 2026).
